Converted amounts (≈) assume the structure as drawn. Starred links: 1 amine or outer side, 2 acyl side, 3 side chain; linkers in the order of their positions; H or OH if unused. Non-standard residues stand in square brackets, D forms with d. Residues, ends and D or L forms follow the SMILES beside them. Trp(1-CMe2(2S-oxiranyl)) = CC(C)([C@H]1CO1)n1cc(C[C@H](N)C(=O)O)c2ccccc21; Trp(1-(1,1-Me2-allyl)) = C=CC(C)(C)n1cc(C[C@H](N)C(=O)O)c2ccccc21; X3 = CC(C)([C@H](O)CCl)n1cc(C[C@H](N[*:1])C(=O)[*:2])c2ccccc21; Tyr(3-NO2) = N[C@@H](Cc1ccc(O)c([N+](=O)[O-])c1)C(=O)O; NMeLeu(5-OH,4R) = CN[C@@H](C[C@@H](C)CO)C(=O)O; X1 = COC(OC)C(C)C[C@@H](C(=O)[*:2])N(C)[*:1]; X2 = C[C@H](CO)C[C@@H](C(=O)[*:2])N(C)[*:1]; Gly(E-crotyl) = C/C=C/C[C@H](N)C(=O)O; NMeL = CN[C@@H](CC(C)C)C(=O)O
Legend:
[1] = tested on: Mycobacterium tuberculosis; experiment: Antimycobacterial activity against nonreplicating Mycobacterium tuberculosis H37Rv under hypoxic condition by fluorescence based assay; assay type: functional
[2] = tested on: Mycobacterium tuberculosis; experiment: Antimycobacterial activity against Mycobacterium tuberculosis H37Rv assessed as reduction in microbial growth after 7 days by alamar blue assay; assay type: functional; details: 168 h
[3] = molecular target: T1, ATP-dependent Clp protease ATP-binding subunit ClpC1 (Mycobacterium tuberculosis, UniProt P9WPC9); experiment: Binding affinity to recombinant full length Mycobacterium tuberculosis H37Rv ClpC1 (1 to 842 residues) expressed in Escherichia coli BL21 cells by surface plasmon resonance analysis
[4] = molecular target: T1, ATP-dependent Clp protease ATP-binding subunit ClpC1; experiment: Binding affinity to recombinant Mycobacterium tuberculosis H37Rv N-terminal His6-tagged ClpC1 (1 to 145 residues) expressed in Escherichia coli BL21 cells by surface plasmon resonance analysis
[5] = tested on: Mycobacteroides abscessus; experiment: Antimycobacterial activity against Mycobacterium abscessus ATCC 19977 assessed as reduction in microbial growth after 7 days by alamar blue assay; assay type: functional; details: ATCC 19977, 168 h
[6] = tested on: Vero; experiment: cells; details: Chlorocebus sabaeus
Description: Cytotoxicity against African green monkey Vero cells

T1 sequence (P9WPC9 whole entry, the tested form may be a part): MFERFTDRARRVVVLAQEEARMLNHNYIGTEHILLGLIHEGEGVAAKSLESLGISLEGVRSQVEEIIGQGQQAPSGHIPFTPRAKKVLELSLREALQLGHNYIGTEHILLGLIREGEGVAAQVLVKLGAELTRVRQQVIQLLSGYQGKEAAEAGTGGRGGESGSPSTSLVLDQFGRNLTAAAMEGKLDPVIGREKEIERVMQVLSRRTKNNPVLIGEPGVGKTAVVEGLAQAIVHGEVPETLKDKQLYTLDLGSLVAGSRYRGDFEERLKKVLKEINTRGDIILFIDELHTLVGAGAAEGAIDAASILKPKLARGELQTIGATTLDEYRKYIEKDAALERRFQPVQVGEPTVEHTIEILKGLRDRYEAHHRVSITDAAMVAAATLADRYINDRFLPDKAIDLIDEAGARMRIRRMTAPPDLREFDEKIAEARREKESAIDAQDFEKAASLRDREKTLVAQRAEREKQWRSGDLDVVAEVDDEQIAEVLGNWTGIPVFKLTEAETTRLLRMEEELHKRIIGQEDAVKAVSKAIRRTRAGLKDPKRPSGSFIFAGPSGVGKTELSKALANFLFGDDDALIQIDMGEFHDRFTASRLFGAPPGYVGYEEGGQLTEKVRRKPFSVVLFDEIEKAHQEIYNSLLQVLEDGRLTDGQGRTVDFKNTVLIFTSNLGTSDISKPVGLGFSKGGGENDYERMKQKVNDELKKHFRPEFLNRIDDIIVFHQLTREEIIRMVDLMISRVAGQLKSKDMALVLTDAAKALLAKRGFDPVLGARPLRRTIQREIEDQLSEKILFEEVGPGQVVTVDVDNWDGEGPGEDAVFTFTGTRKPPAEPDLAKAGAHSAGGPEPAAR

Structure (SMILES) | MIC [1] [µM] | MIC [2] [µM] | Kd [3] [nM] | Kd [4] [nM] | MIC [5] [µM] | IC50 [6] [nM]
C=CC(C)(C)n1cc(C[C@@H]2NC(=O)[C@H](CC(C)C)N(C)C2=O)c2ccccc21 | 4 to 10 (≈ 1.53 to 3.82 µg/mL) | > 10 |  |  |  | 
C/C=C/C[C@@H]1NC(=O)[C@H](CC(C)C)N2C(=O)[C@H](C[C@](C)(O)[C@H]2O)N(C)C(=O)[C@H](C)NC(=O)[C@H](Cc2ccc(O)c([N+](=O)[O-])c2)NC(=O)[C@H](CC(C)C)N(C)C(=O)[C@H](Cc2cn(C(C)(C)[C@H]3CO3)c3ccccc23)NC1=O | 4 to 10 (≈ 4.23 to 10.6 µg/mL) | 0.03 | 50 | 60 |  | 
C/C=C/C[C@@H]1NC(=O)[C@H](CC(C)C)N2C(=O)[C@H](CC(C)[C@H]2O)N(C)C(=O)[C@H](C)NC(=O)[C@H](Cc2ccc(O)c([N+](=O)[O-])c2)NC(=O)[C@H](CC(C)C)N(C)C(=O)[C@H](Cc2cn(C(C)(C)[C@H]3CO3)c3ccccc23)NC1=O (stereo not given in full) | 4 to 10 (≈ 4.17 to 10.4 µg/mL) | 0.02 | 60 | 60 | 0.29 | 
C/C=C/C[C@@H]1NC(=O)[C@H](CC(C)C)N2C(=O)[C@H](C[C@@H](C)[C@H]2O)N(C)C(=O)[C@H](C)NC(=O)[C@H](Cc2ccc(O)c([N+](=O)[O-])c2)NC(=O)[C@H](CC(C)C)N(C)C(=O)[C@H](Cc2cn(C(C)(C)[C@H](O)CO)c3ccccc23)NC1=O | 4 to 10 (≈ 4.24 to 10.6 µg/mL) | 0.1 | 280 | 300 |  | 
C=CC(C)(C)n1cc(C[C@@H]2NC(=O)[C@H](C/C=C/C)NC(=O)[C@H](CC(C)C)NC(=O)[C@H](CC(C)C)N(C)C(=O)[C@H](C)NC(=O)[C@H](Cc3ccc(O)cc3)NC(=O)[C@H](CC(C)C)N(C)C2=O)c2ccccc21 (HELM PEPTIDE1{A.[meL].L.[C/C=C/C[C@H](N[*:1])C(=O)[*:2]].[C=CC(C)(C)n1cc(C[C@H](N[*:1])C(=O)[*:2])c2ccccc21].[meL].Y}$PEPTIDE1,PEPTIDE1,1:R1-7:R2$$$V2.0) | 4 to 10 (≈ 3.87 to 9.67 µg/mL) | > 10 | 5700 | 1200 |  | 
C=CC(C)(C)n1cc(C[C@@H]2NC(=O)[C@H](C/C=C/C)NC(=O)[C@H](CC(C)C)NC(=O)[C@H](CC(C)C)N(C)C(=O)[C@H](C)NC(=O)[C@H](Cc3ccc(O)c([N+](=O)[O-])c3)NC(=O)[C@H](CC(C)C)N(C)C2=O)c2ccccc21 (cyclo(A[NMeL]L[Gly(E-crotyl)][Trp(1-(1,1-Me2-allyl))][NMeL][Tyr(3-NO2)])) | 4 to 10 (≈ 4.05 to 10.1 µg/mL) | 1.7 | 3200 | 1200 |  | 
C/C=C/C[C@@H]1NC(=O)[C@H](CC(C)C)NC(=O)[C@H](CC(C)C)N(C)C(=O)[C@H](C)NC(=O)[C@H](Cc2ccc(O)c([N+](=O)[O-])c2)NC(=O)[C@H](CC(C)C)NC(=O)[C@H](Cc2cn(C(C)(C)[C@H]3CO3)c3ccccc23)NC1=O (cyclo(A[NMeL]L[Gly(E-crotyl)][Trp(1-CMe2(2S-oxiranyl))]L[Tyr(3-NO2)])) | 4 to 10 (≈ 4.06 to 10.1 µg/mL) | 0.57 | 1500 |  |  | 
C/C=C/C[C@@H]1NC(=O)[C@H](CC(C)C)NC(=O)[C@H](CC(C)C)N(C)C(=O)[C@H](C)NC(=O)[C@H](Cc2ccc(O)c([N+](=O)[O-])c2)NC(=O)[C@H](CC(C)C)N(C)C(=O)[C@H](Cc2cn(C(C)(C)[C@H]3CO3)c3ccccc23)NC1=O (cyclo(A[NMeL]L[Gly(E-crotyl)][Trp(1-CMe2(2S-oxiranyl))][NMeL][Tyr(3-NO2)])) | 4 to 10 (≈ 4.11 to 10.3 µg/mL) | 0.2 | 540 | 1700 |  | 
C/C=C/C[C@@H]1NC(=O)[C@H](CC(C)C)NC(=O)[C@H](CC(C)C)N(C)C(=O)[C@H](C)NC(=O)[C@H](Cc2ccc(O)c([N+](=O)[O-])c2)NC(=O)[C@H](CC(C)C)N(C)C(=O)[C@H](Cc2cn(C(C)(C)[C@H](O)CCl)c3ccccc23)NC1=O (cyclo(A[NMeL]L[Gly(E-crotyl)][X3][NMeL][Tyr(3-NO2)])) | 4 to 10 (≈ 4.26 to 10.6 µg/mL) |  | 1500 | 1500 |  | 
C/C=C/C[C@@H]1NC(=O)[C@H](CC(C)C)NC(=O)[C@H](C[C@@H](C)CO)N(C)C(=O)[C@H](C)NC(=O)[C@H](Cc2ccc(O)c([N+](=O)[O-])c2)NC(=O)[C@H](CC(C)C)N(C)C(=O)[C@H](Cc2cn(C(C)(C)[C@H]3CO3)c3ccccc23)NC1=O (cyclo(A[NMeLeu(5-OH,4R)]L[Gly(E-crotyl)][Trp(1-CMe2(2S-oxiranyl))][NMeL][Tyr(3-NO2)])) | 4 to 10 (≈ 4.18 to 10.4 µg/mL) | 0.44 | 1300 | 1600 |  | 
C/C=C/C[C@@H]1NC(=O)[C@H](CC(C)C)NC(=O)[C@H](CC(C)C(OC)OC)N(C)C(=O)[C@H](C)NC(=O)[C@H](Cc2ccc(O)c([N+](=O)[O-])c2)NC(=O)[C@H](CC(C)C)N(C)C(=O)[C@H](Cc2cn(C(C)(C)[C@H]3CO3)c3ccccc23)NC1=O (stereo partly drawn) (cyclo(A[X1]L[Gly(E-crotyl)][Trp(1-CMe2(2S-oxiranyl))][NMeL][Tyr(3-NO2)])) | 4 to 10 (≈ 4.35 to 10.9 µg/mL) | 0.11 | 450 | 310 |  | 
C=CC(C)(C)n1cc(C[C@@H]2NC(=O)[C@H](C/C=C/C)NC(=O)[C@H](CC(C)C)NC(=O)[C@H](C[C@H](C)CO)N(C)C(=O)[C@H](C)NC(=O)[C@H](Cc3ccc(O)c([N+](=O)[O-])c3)NC(=O)[C@H](CC(C)C)N(C)C2=O)c2ccccc21 (cyclo(A[X2]L[Gly(E-crotyl)][Trp(1-(1,1-Me2-allyl))][NMeL][Tyr(3-NO2)])) | 4 to 10 (≈ 4.11 to 10.3 µg/mL) | 0.84 | 1100 | 1100 |  | 
C/C=C/C[C@@H]1NC(=O)[C@H](CC(C)C)NC(=O)[C@H](C[C@H](C)CO)N(C)C(=O)[C@H](C)NC(=O)[C@H](Cc2ccc(O)c([N+](=O)[O-])c2)NC(=O)[C@H](CC(C)C)N(C)C(=O)[C@H](Cc2cn(C(C)(C)[C@H]3CO3)c3ccccc23)NC1=O (cyclo(A[X2]L[Gly(E-crotyl)][Trp(1-CMe2(2S-oxiranyl))][NMeL][Tyr(3-NO2)])) | 4 to 10 (≈ 4.18 to 10.4 µg/mL) | 0.25 | 500 | 620 |  | 
NNC(=O)c1ccncc1 [ISONIAZID] |  | 0.46 |  |  | > 8 | > 50000
CO[C@H]1/C=C/O[C@@]2(C)Oc3c(C)c(O)c4c(O)c(c(/C=N/N5CCN(C)CC5)c(O)c4c3C2=O)NC(=O)/C(C)=C\C=C\[C@H](C)[C@H](O)[C@@H](C)[C@@H](O)[C@@H](C)[C@H](OC(C)=O)[C@@H]1C [RIFAMPIN] |  | 0.03 |  |  | > 4 | > 122000

— ChEMBL document CHEMBL4613246, “Antimycobacterial Rufomycin Analogues from Streptomyces atratus Strain MJM3502” (J Nat Prod, 2020)
